Test system: hippocampal slice cultures
Assay: Aβ-induced cell death (EthD-1/calcein AM, % Death) in organotypic hippocampal slice cultures
Type: cell-based, mouse
Experimental: Pups from C57B6/SJL mice were anaesthetized and decapitated at postnatal day 15. The brain was removed and placed in ice-cold dissecting medium (50% Minimum Essential Medium (Invitrogen, Carlsbad, Calif.), 50% Hank's Balanced Salt Solution (Invitrogen), 25 mM HEPES, and 36 mM glucose). Both hippocampi were dissected under a dissecting microscope and cut at 400 μm on a McIlwain tissue chopper. Slices were separated and placed on filter inserts with a 30 mm diameter and a 0.4 μm filter pore size (Millipore, Billerica, Mass.) held in 6-well culture plates. For the first 3 days, slices were kept in Neurobasal media with B-27 supplement, 1 mM glutamine, and 1% penicillin/streptomycin (Invitrogen). Subsequently, the media was changed every 3 days using media without antibiotics. Organotypic cultures were maintained in a humidified incubator at 37° C. in 5% O2 and 5% CO2 for 14 to 21 days.
Cell death and viability was determined on live slices using the fluorescent probes from Molecular Probes' Live/Dead Kit. After a 40 minute incubation in calcein AM (1:400) and ethidium homodimer (1:1000) in phosphate buffered saline, slices were visualized at 200× magnification with an inverted Nikon Diaphot 200 microscope using the Bio-Rad MRC-1024 Laser Scanning Confocal system (Hercules, Calif.). Random images of the neuronal fields were captured at the emission spectrum of each probe, and Scion Image software (Frederick, Md.) was used to quantify the number of live and dead cells. At least three areas including a neuronal field were imaged and used to determine the percent death for each slice. The percent death was calculated as the number of EthD-1 positive cells divided by the total number of EthD-1 and calcein AM positive cells.
β-amyloid1-42 and reverse Aβ (Aβ42-1) were obtained from BACHEM (Torrance, Calif.). These polypeptides were dissolved in 0.1% NH3OH at 222 μM. For treatments, Aβ was aggregated at 50 μM in Neurobasal media with B-27 supplement and 1 mM glutamine at 37° C. for 24 hours. Then, the slice culture media was removed, and the slices were treated with 1 mL of 25 μM or 50 μM Aβ, reverse Aβ, or vehicle for 24 hours. Human TTR (Calbiochem) or IGF-2 (Peprotech, Rocky Hill, N.J.) was added to slices together with the Aβ treatment at final concentrations of 3 μM (TTR) or 500 nM (IGF-2). sAPPα was prepared as described previously (Mattson et al., Neuron, 10:243-254 (1993)).
Unless otherwise stated, all sAPPα treatments were performed at 1 nM 48 hours prior to the addition of Aβ. Antibodies against TTR (C-20) or IGF-2 (F-20; 4 μg/mL; Santa Cruz) or sAPPα (6E10; 10 μg/mL; Chemicon) were added to slices together with the sAPPα treatment. Goat IgG (4 μg/mL; Santa Cruz) or mouse IgG1 (10 μg/mL; Chemicon) was added as a control. The 10 amino acid fragment of the carboxyl-terminal region of sAPPα (592-601 of APP695; SEVKMDAEFR; SEQ ID NO:1; Sigma) was added according to the same protocol for sAPPα.
SiRNA's were created based on the mouse mRNA sequences using the Ambion Silencer siRNA Construction Kit (Austin, Tex.). Several siRNA's were created by in vitro transcription for each silenced gene. Transfection was performed for 4 hours at 37° C. prior to vehicle or sAPPα treatment using 25 nM siRNA combined with the polyamines in the Ambion siPORT Amine Transfection Agent. Transfections were performed in Neurobasal media with 1 mM glutamine (Invitrogen). The successful mRNA target sequences are as follows, TTR: 5′-[…]-3′ (SEQ ID NO:16) and 5′-[…]-3′ (SEQ ID NO:17); IGF-2: 5′-AA-GGGGATAGAGATGTGAGAG-3′ (SEQ ID NO:18) and 5′-AAATTATGTGGT-AATTCTGCA-3′ (SEQ ID NO:19); IGF-1R: 5′-[…]-3′ (SEQ ID NO:20) and 5′-[…]-3′ (SEQ ID NO:21).
β-amyloid1-42 and reverse Aβ (Aβ42-1) were obtained from BACHEM (Torrance, Calif.). These peptides were dissolved in 0.1% NH3OH at 222 μM. For treatments, Aβ was aggregated at 50 μM in Neurobasal media with B-27 supplement and 1 mM glutamine at 37° C. for 24 hours. […]

[1] = 1 nM 48 hours prior to 25 μM Aβ (24 hours), FIG. 7

For SEVKMDAEFR, the “Protection against Aβ-induced death (% Death)” value (“Protection … (% Death)” below) [1] was “completely protected” and the “Protection against Aβ-induced death (% Death, EthD-1 positive cells)” value (1 nM added 48 hours prior to 25 μM or 50 μM Aβ (24 hours), FIG. 4A) was “mimics the protective effect of sAPPα”.

“DAEF [peptide of 4 residues within the 10 residue peptide (residues 597-600)]” was tested, and the “Protection … (% Death)” value [1] was “sufficient to protect”, the “Protection … (% Death)” value (1 nM 48 h prior to 25 μM Aβ (24 h), FIG. 12A) was “protects against the Aβ-induced toxicity” and the “Protection … (% Death)” value (1 nM 48 h prior to 25 μM Aβ (24 h), FIG. 12A, listed as tetramer) was “completely protected”. The “Protection … (% Death)” value (48 h prior to 25 μM Aβ (24 h), FIG. 12B, 1 nM, final concentration of 1 mM) was “protects against the Aβ-induced toxicity” and the “Protection … (% Death)” value (48 h prior to 25 μM Aβ (24 h), FIG. 12B, 1 nM, final concentration of 1 mM, listed as tetramer) was “completely protected”.

With β-amyloid1-42 [Aβ] the “Percent death compared to treatment with vehicle” value (25 μM Aβ, 24 hours) was “dramatic and significant increase” and the “Neurons that lost membrane integrity (EthD-1 positive) / percent death” value (25 μM or 50 μM Aβ, 24 hours, compared to reverse Aβ) was “dramatic increase”.

Source: patent US20090176714A1, “METHOD OF REDUCING THE EFFECTS OF ABeta AND COMPOSITIONS THEREFORE” (priority 2004, published 2009)
